In US6537972B1, “Compositions and methods for inhibiting human immunodeficiency virus infection by down-regulating human cellular genes” (Subsidiary No. 3., Inc., priority 1997, dated 2003):

Tests used:
OM10.1 cells = format: cell-based; details: human, 24 h, 100 nM
HIV-1SF33 = test: Infection of freshly isolated human PBLs with HIV-1SF33 in the presence of mofarotene (CD3-gated flow cytometry); format: cell-based; details: for % CD4+ in T cell population / % p24+ in CD4+ T population: HIV +, HIV-1SF33 TCID50 1000
Experimental: (§1) Human peripheral blood leukocytes (PBLs) were isolated using Ficoll-Hypaque density gradient separation. Cells were washed twice and resuspended in RPMI+10% FBS+2% human AB serum+penicillin/streptomycin/glutamine+100 Units/ml of IL-2 at a concentration of 0.5×10^6 cells/ml. PBLs were then activated with phytohemagglutinin at 0.5 μg/ml and placed in a humidified incubator at 37° C./[…]. After two days of activation, 10^6 cells were infected with HIV-1SF33 at TCID50 of 1000, in the presence of various concentrations of mofarotene: 0 μM, 1 μM, 0.5 μM, 0.1 μM, and 0.05 μM. A separate set of uninfected samples under identical concentrations of mofarotene were also maintained as controls. The samples were analyzed by flow cytometry at day 4 and day 6 post infection. The cells were gated for CD3 expression (for T cells). Then the expression of CD4 and viral p24 and CD4 was examined by bivariate dot plot.

[1] = system: latent HIV provirus in OM10.1 cells; test: Inhibition of TNF-α induction of latent HIV provirus in OM10.1 cells (CD4 / p24 by flow cytometry); format: cell-based, HIV-1
Experimental: OM10.1 cells were cultured in RPMI 1640 glucose-free media prior to and during incubation with NADH dehydrogenase inhibitors and TNF-α induction. The inhibitors were added to the cells followed by TNF-α induction 1-2 hours later. The expression of CD4 by the cells was assessed by anti-CD4 antibody staining and flow cytometry after 24 hour incubation at 37° C.

[2] = system: human peripheral blood leukocytes (CD3+ T cells); test: Uninfected human PBLs under mofarotene (control samples, CD3-gated flow cytometry); format: cell-based; details: for % CD4+ in T cell population / % p24+ in CD4+ T population: HIV −, human PBLs; for % CD4+ in T cell population: CD3+ gated
Experimental: as §1

[3] = mofarotene 0.05 μM, human PBLs, day 6
[4] = mofarotene 0.1 μM, human PBLs, day 6
[5] = mofarotene 0.5 μM, human PBLs, day 6
[6] = mofarotene 1.0 μM, human PBLs, day 6
[7] = mofarotene 1.0 μM, human PBLs, day 6, listed as mofarotene

For `C/C(=C\c1ccc(OCCN2CCOCC2)cc1)c1ccc2c(c1)C(C)(C)CCC2(C)C` [Mofarotene], the “cells that remained viable” value (OM10.1 cells) was “greater than 80%”, the “depletion of CD4+ T cells by HIV infection” value (HIV-1SF33; 1 μM, day 6, human PBLs) was “inhibited the depletion of CD4^+ T cells” and the “% CD4+ in T cell population” value (HIV-1SF33; [3]) was 18%. The “% p24+ in CD4+ T population” value (HIV-1SF33; [3]) was 20.5%, the “% CD4+ in T cell population” value (HIV-1SF33; [4]) was 28% and the “% p24+ in CD4+ T population” value (HIV-1SF33; [4]) was 11.4%. The “% CD4+ in T cell population” value (HIV-1SF33; [5]) was 24%, the “% p24+ in CD4+ T population” value (HIV-1SF33; [5]) was 12.5% and the “% CD4+ in T cell population” value (HIV-1SF33; [6]) was 25%. The “% p24+ in CD4+ T population” value (HIV-1SF33; [6]) was 10%, the “% CD4+ in T cell population” value (HIV-1SF33; [7]) was about 25% and the “% p24+ in CD4+ T population” value (HIV-1SF33; [7]) was 10%. The “difference between HIV-infected PBLs with or without mofarotene” value (HIV-1SF33; day 4 post-infection) was “little detectable difference”, the “cells that retained CD4 expression” value ([1]; 100 nM, TNF-α-induced OM10.1 cells) was 80% and the “induction of latent HIV provirus in OM10.1 cells (retention of CD4 expression)” value ([1]; TNF-α-induced OM10.1 cells, 24 hour incubation, FIG. 25, 26) was “inhibited HIV-1 induction at even lower concentrations”. The “intracellular p24 levels in treated cells” value ([1]; compared with untreated controls) was “suppressed intracellular p24 levels”, the “% CD4+ in T cell population” value ([2]; mofarotene 0.05 μM, day 6) was 33% and the “% p24+ in CD4+ T population” value ([2]; mofarotene 0.05 μM, day 6) was 0%. The “% CD4+ in T cell population” value ([2]; mofarotene 0.1 μM, day 6) was 34%, the “% p24+ in CD4+ T population” value ([2]; mofarotene 0.1 μM, day 6) was 0% and the “% CD4+ in T cell population” value ([2]; mofarotene 0.5 μM, day 6) was 34%. The “% p24+ in CD4+ T population” value ([2]; mofarotene 0.5 μM, day 6) was 0%, the “% CD4+ in T cell population” value ([2]; mofarotene 1.0 μM, day 6) was 36% and the “% p24+ in CD4+ T population” value ([2]; mofarotene 1.0 μM, day 6) was 0%. For the same compound, the “percentage of CD4+ T cells, compound alone” value ([2]; day 4, uninfected samples) was “did not significantly alter”, the “expression level of CD3 on the cell surface” value ([2]; day 6) was “did not alter” and the “increase of the percentage of CD4+ T cells in uninfected samples, compound alone” value ([2]; day 6, effect called minimal) was “up to 4%”.
